Measurements taken from PubChem BioAssay AID1963441 (Molecular Pharmacology Branch, DTP, NCI, 2024).

System: NCI-H1876 complex spheroid growth, % test/control
Experiment: Anticancer human tumor NCI-H1876 cell line growth inhibition [Asc];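 also: compound exposure lasted 7 days starting three days after seeding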;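 as to viability, T/C: 100% = DMSO vehicle control wells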
Conditions: for IC50: curve of first compound; for viability, T/C: stronger effect = lower value
Procedure: Multicellular complex tumor spheroid response to apoptosis pathway targeting inhibitors Alrizomadlin, Pelcitoclax, and Dasminapant in combination with a variety of drugs and investigational agents in selected tumor cell lines
The MDM2 inhibitor alrizomadlin, the Bcl-2/Bcl-xL inhibitor pelcitoclax, and the IAPs inhibitor dasminapant were evaluated both individually and in combination with standard of care and investigational anticancer small molecules within a complex spheroid model of solid tumors. . Complex spheroids include a stromal component modeled by human endothelial cells (HUVEC) and fibroblasts modeled by human mesenchymal stem cells (MSCs). The concentration ranges selected for each drug and investigational agent were based upon clinically achievable concentrations if the clinical Cmax of the agent was known.
Compounds. The drugs and investigational agents: alrizomadlin (APG-115; NSC831270), pelcitoclax (APG-1252; NSC835773), dasminapant (APG-1387;NSC834197), TAK-243 (NSC785004), copanlisib (NSC809693), olaparib (NSC753686), talazoparib (NSC767125), cobimetinib (NSC 768068), eltanexor (KPT-8602, NSC 794443), abemaciclib (NSC 768073), sotorasib (NSC818433), adagrasib (NSC 831453), MRTX-1133 (NSC 836407), Iadademestat (ORY1001, NSC 806812), and RMC-4630 (NSC839698), were obtained from the NCI Developmental Therapeutics Program Chemical Repository. The FDA-approved anticancer drug set is available from the Developmental Therapeutics Program at https://dtp.cancer.gov/organization/dscb/obtaining/available plates.htm. […] The stock solutions were prepared in dimethyl sulfoxide (DMSO, Sigma-Aldrich, St. Louis, MO, cat. D2650) at 800-fold the tested concentration and stored at -70 degrees C prior to their use. All drugs and investigational agents were tested over a range starting from a high concentration at or near the clinical Cmax and decreasing in half-log increments. If the clinical Cmax for an agent had not been determined, the highest concentration tested was 10 microM.
The patient-derived cancer (PDC) cell lines include five colon adenocarcinomas: 186277-243-T-J2-PDC, 616215-338-R-J1-PDC, 439559-082-T-J2-PDC, 463943-066-T-J2-PDC, and 519858-162-T-J1-PDC; three pancreatic carcinomas: 323965-272-R-J2-PDC, 521955-158-R6-J3-PDC, and 521955-158-R2-J5-PDC; two uterine sarcomas: 327498-152-R-J2-PDC and 993429-296-R-J1-PDC; two rhabdomyosarcomas: 755483-174-R-J1-PDC and 772245-204-R-J1-PDC; two soft tissue sarcomas: 126254-015-R-J1-PDC and 494315-158-R-J1-PDC; two malignant fibrous histiocytomas: 317291-083-R-J1-PDC and 596521-263-R-J1-PDC; two breast carcinomas: 171881-019-R-J1-PDC and 885512-296-R-J2-PDC; and one ovarian carcinoma: 6556581-035-R-J-PDC were obtained from the NCI PDMR, (https://pdmr.cancer.gov). The established cell lines HSSY-2 synovial sarcoma (RRID:CVCL 8719), SYO-1 synovial sarcoma (RRID:CVCL_7146), MPNST malignant peripheral neural sheath tumor were obtained from the Sloan Kettering Institute. The following established cell lines were purchased from the American Type Culture Collection (ATCC, Manassas, VA), Sor the received from the NCI repository:, PANC-1 pancreatic carcinoma (CRL-1469, RRID:CVCL_0480), OVCAR-5 ovarian carcinoma (RRID:CVCL_1628), OVCAR-8 ovarian carcinoma (RRID:CVCL_1629), , MCF-7 breast carcinoma (CRL-12584, RRID:CVCL_0031), MDA-MB-231 breast carcinoma (CRL-12532, RRID:CVCL_0062), NCI-H1876 small cell lung carcinoma (CRL-5902, RRID:CVCL_1503), NCI-H510A small cell lung carcinoma (HTB-184, RRID:CVCL_1565), NCI-H1417 (CRL-5869, RRID:CVCL_1469), and NCI-H196 small cell lung carcinoma (CRL-5823, RRID:CVCL_1509). Dr. Peter Houghton (Greehey Children's Cancer Research Institute, University of Texas Health Science Center, San Antonio, TX) provided Rh-18 rhabdomyosarcoma (RRID:CVCL_1659). Pooled donor human umbilical vein endothelial cells (HUVEC, Lonza, cat. CC-2519) and human mesenchymal stem cells (hMSC, Lonza, cat. PT-2501) were purchased from Lonza (Walkersville, MD).
Cell Culture. […]

With NC1CCC(NC2CC2c2ccccc2)CC1 (configuration not stated) + CCN1C(C(=O)NC23CCC(C(=O)O)(CC2)CC3)C(c2cccc(Cl)c2F)C2(C(=O)Nc3cc(Cl)ccc32)C12CCCCC2 the IC50 (second compound 0.00949 µM) was greater than 0.1 µM, the IC50 (second compound 0.03 µM) was greater than 0.1 µM and the IC50 (second compound 0.0949 µM) was greater than 0.1 µM. For the same molecule, the IC50 (second compound 0.3 µM) was greater than 0.1 µM, the IC50 (second compound 0.949 µM) was greater than 0.1 µM and the IC50 (second compound 3 µM) was greater than 0.1 µM. For the same molecule, the viability, T/C (second compound 0.00949 µM, first compound 0.000316 µM) was 103%, the viability, T/C (second compound 0.00949 µM, first compound 0.001 µM) was 105% and the viability, T/C (second compound 0.00949 µM, first compound 0.00316 µM) was 105%. It also gave a viability, T/C (second compound 0.00949 µM, first compound 0.01 µM) of 113%, a viability, T/C (second compound 0.00949 µM, first compound 0.0316 µM) of 108% and a viability, T/C (second compound 0.00949 µM, first compound 0.1 µM) of 119%. It also gave a viability, T/C (second compound 0.03 µM, first compound 0.000316 µM) of 112%, a viability, T/C (second compound 0.03 µM, first compound 0.001 µM) of 107% and a viability, T/C (second compound 0.03 µM, first compound 0.00316 µM) of 110%. It also gave a viability, T/C (second compound 0.03 µM, first compound 0.01 µM) of 117%, a viability, T/C (second compound 0.03 µM, first compound 0.0316 µM) of 120% and a viability, T/C (second compound 0.03 µM, first compound 0.1 µM) of 110%. The viability, T/C (second compound 0.0949 µM, first compound 0.000316 µM) was 106%, the viability, T/C (second compound 0.0949 µM, first compound 0.001 µM) was 117% and the viability, T/C (second compound 0.0949 µM, first compound 0.00316 µM) was 113%. The viability, T/C (second compound 0.0949 µM, first compound 0.01 µM) was 113%, the viability, T/C (second compound 0.0949 µM, first compound 0.0316 µM) was 117% and the viability, T/C (second compound 0.0949 µM, first compound 0.1 µM) was 112%. The viability, T/C (second compound 0.3 µM, first compound 0.000316 µM) was 117%, the viability, T/C (second compound 0.3 µM, first compound 0.001 µM) was 116% and the viability, T/C (second compound 0.3 µM, first compound 0.00316 µM) was 123%. For the same molecule, the viability, T/C (second compound 0.3 µM, first compound 0.01 µM) was 124%, the viability, T/C (second compound 0.3 µM, first compound 0.0316 µM) was 118% and the viability, T/C (second compound 0.3 µM, first compound 0.1 µM) was 108%. It also gave a viability, T/C (second compound 0.949 µM, first compound 0.000316 µM) of 118%, a viability, T/C (second compound 0.949 µM, first compound 0.001 µM) of 121% and a viability, T/C (second compound 0.949 µM, first compound 0.00316 µM) of 134%. The viability, T/C (second compound 0.949 µM, first compound 0.01 µM) was 113%, the viability, T/C (second compound 0.949 µM, first compound 0.0316 µM) was 133% and the viability, T/C (second compound 0.949 µM, first compound 0.1 µM) was 116%. It also gave a viability, T/C (second compound 3 µM, first compound 0.000316 µM) of 122%, a viability, T/C (second compound 3 µM, first compound 0.001 µM) of 112% and a viability, T/C (second compound 3 µM, first compound 0.00316 µM) of 111%. The viability, T/C (second compound 3 µM, first compound 0.01 µM) was 126%, the viability, T/C (second compound 3 µM, first compound 0.0316 µM) was 125% and the viability, T/C (second compound 3 µM, first compound 0.1 µM) was 111%.
